Source: patent publication US10632089B2, “Tyrosinase activity inhibitor and external preparation for skin” (JO Cosmetics Co., Ltd., priority 2015, dated 2020)
Counter-ions that a name gives are not always drawn. Like-named read-outs stand apart in the source and are kept apart here.

Columns and labels:
[1] = molecular target: T1, tyrosinase (derived from mushrooms) (Agaricus bisporus, UniProt C7FF04); experiment: Test for evaluating inhibition of tyrosinase activity (DOPA substrate, absorbance at 475 nm); type: biochemical
T1 construct: purchased Sigma
Experimental: (§1) After 2 minutes of the addition, the test solution was subjected to measurement of absorbance at 475 nm. Thus-obtained absorbance value was defined as D1. As a control, the same measurement was conducted on a test solution in which each sample was replaced with purified water, and the obtained absorbance value was defined as D2. An inhibition rate of tyrosinase activity was calculated by the following formula.

[2] = system: tyrosinase (derived from mushrooms); experiment: as above; type: biochemical; conditions: for Tyrosinase activity inhibition rate in the case of using both components/Sum of tyrosinase activity inhibition rate in the case of using each component alone: no second component; for Inhibition rate of tyrosinase activity in the case of conbining human manganese SOD/Inhibition rate of tyrosinase activity in the case without addition of human manganese SOD: (B-1) 0 unit/mL
Experimental: as §1

[3] = see paragraphs 0060, 0061 and 0072 of Patent Document 6; cited from earlier work

T1 sequence (C7FF04 whole entry): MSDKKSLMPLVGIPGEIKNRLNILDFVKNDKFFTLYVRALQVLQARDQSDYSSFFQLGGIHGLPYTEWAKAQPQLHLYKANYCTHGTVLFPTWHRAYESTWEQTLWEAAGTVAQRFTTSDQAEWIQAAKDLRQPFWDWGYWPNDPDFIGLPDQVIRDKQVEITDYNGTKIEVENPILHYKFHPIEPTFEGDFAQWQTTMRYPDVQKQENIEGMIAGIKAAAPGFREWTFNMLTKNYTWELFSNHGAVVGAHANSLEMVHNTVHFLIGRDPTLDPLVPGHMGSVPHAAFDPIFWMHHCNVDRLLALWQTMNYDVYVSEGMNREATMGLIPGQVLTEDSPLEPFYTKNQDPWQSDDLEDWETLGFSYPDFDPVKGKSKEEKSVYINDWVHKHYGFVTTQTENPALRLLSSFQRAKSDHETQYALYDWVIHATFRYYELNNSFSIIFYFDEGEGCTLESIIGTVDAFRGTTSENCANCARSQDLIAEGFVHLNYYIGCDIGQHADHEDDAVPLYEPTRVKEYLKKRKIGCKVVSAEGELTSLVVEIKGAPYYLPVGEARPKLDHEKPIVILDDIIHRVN

CCOC1=C(O)C(=O)O[C@@H]1[C@@H](O)CO [3-O-ethylascorbic acid, reference compound]
inhibition at 2500 µg/mL ([1]; (B-2) component only, 2.5 mg/mL, read-out: Inhibition rate of tyrosinase activity (%), (B) component only): 29.9%

O=C1O[C@H]([C@@H](O)CO)C(O)=C1O [Ascorbic acid, ascorbic acid, reference compound]
inhibition at 10 µg/mL ([1]; read-out: Inhibition rate of tyrosinase activity (%), (B) component only): 28.7%

O=C1O[C@H]([C@@H](O)CO)C([O-])=C1OS(=O)(=O)[O-].[Na+].[Na+] [Disodium ascorbyl sulfate, reference compound]
Inhibition rate of tyrosinase activity (%), (B) component only ([1]; (B-2) component only, 2.5 mg/mL): 40.5%

O=C1O[C@H]([C@@H](O)CO)C([O-])=C1OP(=O)([O-])[O-].O=C1O[C@H]([C@@H](O)CO)C([O-])=C1OP(=O)([O-])[O-].[Mg+2].[Mg+2].[Mg+2] [Magnesium ascorbyl phosphate, magnesium ascorbyl phosphate, reference compound]
Inhibition rate of tyrosinase activity (%), (B) component only ([1]; (B-2) component only, 5 mg/mL): 11.1%

Cc1ncc(CO)c(CO)c1O [Pyridoxine hydrochloride, pyridoxine hydrochloride, reference compound]
inhibition at 5000 µg/mL ([1]; read-out: Inhibition rate of tyrosinase activity (%)): 42.9%

O=C1O[C@H]([C@@H](O)CO)C([O-])=C1OP(=O)([O-])[O-].[Na+].[Na+].[Na+] [Sodium ascorbyl phosphate, sodium ascorbyl phosphate, reference compound]
Inhibition rate of tyrosinase activity (%), (B) component only ([1]; (B-2) component only, 5 mg/mL): 15.6%

OC[C@H]1O[C@@H](Oc2ccc(O)cc2)[C@H](O)[C@@H](O)[C@@H]1O [arbutin, reference compound]
inhibition rate of tyrosinase activity ([1]; arbutin solely, 3.0% by mass): 71.3%

O=C1O[C@H]([C@@H](O)CO)C(O)=C1O[C@H]1O[C@H](CO)[C@@H](O)[C@H](O)[C@H]1O [ascorbyl glucoside, 2-O-α-D-glucopyranosyl-L-ascorbic acid]
inhibition rate of tyrosinase activity ([1]; ascorbic acid derivative (ascorbyl glucoside) solely, 2.0% by mass): 21.9%
inhibition at 5000 µg/mL ([1]; ascorbyl glucoside solely, 5 mg/mL, read-out: Inhibition rate of tyrosinase activity (%)): 8.4%
inhibition at 10000 µg/mL ([1]; ascorbyl glucoside solely, 10 mg/mL, read-out: Inhibition rate of tyrosinase activity (%)): 15.4%
inhibition at 20000 µg/mL ([1]; ascorbyl glucoside solely, 20 mg/mL, read-out: Inhibition rate of tyrosinase activity (%)): 26.8%

O=C(O)CCCCC1CCSS1 (stereo not drawn) [α-lipoic acid, 6,8-dithiooctanoic acid, reference compound]
Inhibition rate of tyrosinase activity (%) ([1]; α-lipoic acid solely, 4.31 μg/mL): 0.7%
Tyrosinase activity inhibition rate in the case of using both components/Sum of tyrosinase activity inhibition rate in the case of using each component alone ([2]; α-lipoic acid 4.31 μg/mL): 1.00

zinc chelate compound of N-(6,8-dimercaptooctanoyl)-L-histidine sodium salt [histidine dithiooctanamide (Na/zinc)]
Inhibition rate of tyrosinase activity (%) ([1]; histidine dithiooctanamide (Na/zinc) solely, 1.08 μg/mL (2.5 μM)): 13.2%
Inhibition rate of tyrosinase activity (%) ([1]; histidine dithiooctanamide (Na/zinc) solely, 2.15 μg/mL (5 μM)): 25.3%
Inhibition rate of tyrosinase activity (%) ([1]; histidine dithiooctanamide (Na/zinc) solely, 3.23 μg/mL (7.5 μM)): 53.6%
Inhibition rate of tyrosinase activity (%) ([1]; histidine dithiooctanamide (Na/zinc) solely, 4.31 μg/mL (10 μM)): 68.9%
Inhibition rate of tyrosinase activity in the case of conbining human manganese SOD/Inhibition rate of tyrosinase activity in the case without addition of human manganese SOD ([2]; (A) 1.08 μg/mL): 1.00
Tyrosinase activity inhibition rate in the case of using both components/Sum of tyrosinase activity inhibition rate in the case of using each component alone ([2]; (A) 1.08 μg/mL): 1.00
Inhibition rate of tyrosinase activity in the case of conbining human manganese SOD/Inhibition rate of tyrosinase activity in the case without addition of human manganese SOD ([2]; (A) 2.15 μg/mL): 1.00
Tyrosinase activity inhibition rate in the case of using both components/Sum of tyrosinase activity inhibition rate in the case of using each component alone ([2]; (A) 2.15 μg/mL): 1.00
Inhibition rate of tyrosinase activity in the case of conbining human manganese SOD/Inhibition rate of tyrosinase activity in the case without addition of human manganese SOD ([2]; (A) 3.23 μg/mL): 1.00
Inhibition rate of tyrosinase activity in the case of conbining human manganese SOD/Inhibition rate of tyrosinase activity in the case without addition of human manganese SOD ([2]; (A) 4.31 μg/mL): 1.00

B1: MHS:Mn-SOD: human mutant manganese SOD, third amino acid from N-terminus serine substituted with arginine (Patent Document 6) (protein, UniProt P04179 25-222, looked up, variant S3R)
Superoxide dismutase [Mn], …: KHRLPDLPYDYGALEPHINAQIMQLHHSKHHAAYVNNLNVTEEKYQEALAKGDVTAQIALQPALKFNGGGHINHSIFWTNLSPNGGGEPKGELLEAIKRDFGSFDKFKEKLTAASVGVQGSGWGWLGFNKERGHLQIAACPNQDPLQGTTGLIPLLGIDVWEHAYYLQYKNVRPDYLKAIWNVINWENVTERYMACKK
isoelectric point [3]: about 8.2

B2: human manganese SOD: human manganese superoxide dismutase, "yeast extract (SOD)" commercially available from Biox Technologies, 3,000 units/mL (protein, UniProt P04179 25-222, looked up)
Superoxide dismutase [Mn], …: KHSLPDLPYDYGALEPHINAQIMQLHHSKHHAAYVNNLNVTEEKYQEALAKGDVTAQIALQPALKFNGGGHINHSIFWTNLSPNGGGEPKGELLEAIKRDFGSFDKFKEKLTAASVGVQGSGWGWLGFNKERGHLQIAACPNQDPLQGTTGLIPLLGIDVWEHAYYLQYKNVRPDYLKAIWNVINWENVTERYMACKK
Inhibition rate of tyrosinase activity (%) ([1]; human manganese SOD solely, 3 units/mL): 4.53%
Inhibition rate of tyrosinase activity (%) ([1]; human manganese SOD solely, 3 units/mL, listed as (B-1) component): 4.5%
Inhibition rate of tyrosinase activity (%) ([1]; human manganese SOD solely, 15 units/mL): 3.74%
Inhibition rate of tyrosinase activity (%) ([1]; human manganese SOD solely, 15 units/mL, listed as (B-1) component): 3.7%
Inhibition rate of tyrosinase activity (%) ([1]; human manganese SOD solely, 150 units/mL): 4.66%
Inhibition rate of tyrosinase activity (%) ([1]; human manganese SOD solely, 150 units/mL, listed as (B-1) component): 4.7%
